Test results from patent US20230278972A1, “SUBSTITUTED HALOALKYL SULFONANILIDE HERBICIDES” (FMC Corporation, priority 2020, published 2023).
Where two headings read alike, the source gives them in different places.

Columns and labels:
[1] = tested on: barnyardgrass (Echinochloa crus-galli); assay: Test A postemergence, barnyardgrass; format: in vivo; settings: Echinochloa crus-galli, post-emergence, 240 h, Postemergence, 0 to 100 scale (0 no effect, 100 complete control); for pest or weed control at 125 g/ha: 125 g ai/ha; for pest or weed control at 500 g/ha: 500 g ai/ha
Outline: (§1)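 Directed soil spray at planting gave the preemergence treatment, while foliar application to one- to two-leaf seedlings (2–10 cm) gave the postemergence one; pots held a loam and sand mixture and chemicals were carried in a non-phytotoxic solvent with surfactant.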

[2] = tested on: Foxtail, Giant (giant foxtail, Setaria faberi); assay: Test A postemergence, Foxtail, Giant; format: in vivo; settings: Setaria faberi, post-emergence, 240 h, Postemergence, 0 to 100 scale (0 no effect, 100 complete control); for pest or weed control at 125 g/ha: 125 g ai/ha; for pest or weed control at 500 g/ha: 500 g ai/ha
Outline: as §1

[3] = tested on: barnyardgrass (Echinochloa crus-galli); assay: Test A preemergence, barnyardgrass; format: in vivo; settings: Echinochloa crus-galli, pre-emergence, 240 h, Preemergence; for pest or weed control at 125 g/ha: 125 g ai/ha; for pest or weed control at 500 g/ha: 500 g ai/ha
Outline: as §1

[4] = tested on: pigweed (Amaranthus retroflexus); assay: Test A preemergence, pigweed; format: in vivo; settings: Amaranthus retroflexus, pre-emergence, 240 h; for pest or weed control at 125 g/ha: 125 g ai/ha; for pest or weed control at 500 g/ha: 500 g ai/ha
Outline: as §1

[5] = visual injury approx. 10 days, read-out: Plant response rating, Barnyardgrass
[6] = visual injury vs untreated controls after approx. 10 days, read-out: Barnyardgrass plant response rating
[7] = visual injury approx. 10 days, read-out: Plant response rating, Foxtail, Giant
[8] = visual injury vs untreated controls after approx. 10 days, read-out: Foxtail, Giant plant response rating
[9] = visual injury on 0 to 100 scale (0 no effect, 100 complete control), approximately 10 days, read-out: Barnyardgrass plant response rating
[10] = 0 to 100 scale (0 no effect, 100 complete control), read-out: Plant response rating, Barnyardgrass
[11] = visual injury on 0 to 100 scale (0 no effect, 100 complete control), approximately 10 days, read-out: Pigweed plant response rating
[12] = 0 to 100 scale (0 no effect, 100 complete control), read-out: Plant response rating, Pigweed
[13] = visual injury, 0 to 100 scale (0 no effect, 100 complete control), approx. 10 days, read-out: Plant response rating, Pigweed
[14] = read-out: Plant response rating, Foxtail, Giant
[15] = visual injury, 0 to 100 scale (0 no effect, 100 complete control), approx. 10 days, read-out: Plant response rating, Barnyardgrass
[16] = read-out: Plant response rating, Barnyardgrass
[17] = visual injury, approx. 10 days, read-out: Plant response rating, Barnyardgrass
[18] = visual injury, approx. 10 days, read-out: Plant response rating, Foxtail, Giant

SMILES | pest or weed control at 125 g/ha [1, 5] | pest or weed control at 500 g/ha [1, 6] | melting point | pest or weed control at 125 g/ha [2, 7] | pest or weed control at 500 g/ha [2, 8] | pest or weed control at 125 g/ha [3, 9] | pest or weed control at 500 g/ha [3, 10] | pest or weed control at 125 g/ha [4, 11] | pest or weed control at 500 g/ha [4, 12] | pest or weed control at 125 g/ha [4, 13] | pest or weed control at 125 g/ha [2, 14] | pest or weed control at 125 g/ha [3, 15] | pest or weed control at 125 g/ha [1, 16] | pest or weed control at 500 g/ha [1, 17] | pest or weed control at 500 g/ha [2, 18] | pest or weed control at 500 g/ha [4, 11] | pest or weed control at 500 g/ha [1, 5] | pest or weed control at 500 g/ha [2, 7] | pest or weed control at 500 g/ha [3, 9]
Cc1cc(C)c(C2=NOC3COCCC23)cc1NS(=O)(=O)C(F)(F)F (stereo not shown) [Compound 121, N-[2,4-Dimethyl-5-(3a,4,7,7a-tetrahydro-5H-pyrano[4,3-d]isoxazol-3-yl)phenyl]-1,1,1-trifluoromethanesulfonamide] | 90% | 90% | 117 to 120 °C | 50% | 90% | 90% | 90% | – | – | – | – | – | – | – | – | – | – | – | –
Cc1cc(C)c(N(COC(=O)C(C)(C)C)S(=O)(=O)C(F)(F)F)cc1C1=NO[C@@H]2CCC[C@H]12 [Compound 100, [[2,4-Dimethyl-5-[(3aR,6aR)-3a,5,6,6a-tetrahydro-4H-cyclopent[d]isoxazol-3-yl]phenyl][(trifluoromethyl)sulfonyl]amino]methyl 2,2-dimethylpropanoate] | 80% | 90% | – | 10% | 40% | 70% | 90% | 70% | 80% | – | – | – | – | – | – | – | – | – | –
Cc1c(NS(=O)(=O)C(F)(F)F)cc(C(=O)N2CCOCC2)c(C)c1C [Compound 289, 1,1,1-Trifluoro-N-[2,3,4-trimethyl-5-(4-morpholinylcarbonyl)phenyl]methanesulfonamide] | – | – | 247 to 250 °C | – | – | – | – | – | – | – | – | – | – | – | – | – | – | – | –
Cc1cc(C)c(C2=NOC3(CCCCC3)C2)cc1NS(=O)(=O)C(F)(F)F [Compound 197, N-[2,4-Dimethyl-5-(1-oxa-2-azaspiro[4.5]dec-2-en-3-yl)phenyl]-1,1,1-trifluoromethanesulfonamide] | – | – | – | – | 90% | – | 100% | – | 100% | 80% | 80% | 90% | – | – | – | – | – | – | –
Cc1cc(C)c(C2=NO[C@@H]3CCC[C@H]23)cc1NS(=O)(=O)C(F)(F)F [Compound 103, N-[2,4-Dimethyl-5-[(3aR,6aR)-3a,5,6,6a-tetrahydro-4H-cyclopent[d]isoxazol-3-yl]phenyl]-1,1,1-trifluoromethanesulfonamide] | 90% | 90% | – | 30% | 70% | 90% | 90% | 100% | 100% | – | – | – | – | – | – | – | – | – | –
Cc1c(NS(=O)(=O)C(F)(F)F)cc(C(=O)N2CCOCC2)c(C)c1F [Compound 190, 1,1,1-Trifluoro-N-[3-fluoro-2,4-dimethyl-5-(4-morpholinylcarbonyl)phenyl]methanesulfonamide] | – | 90% | 236 to 240 °C | – | 80% | – | 100% | – | 100% | 100% | 20% | 90% | 80% | – | – | – | – | – | –
Cc1cc(Cl)c(NS(=O)(=O)C(F)(F)F)cc1C(=O)N1CCCCC1 [Compound 18, N-[2-Chloro-4-methyl-5-(1-piperidinylcarbonyl)phenyl]-1,1,1-trifluoromethanesulfonamide] | 0% | – | – | 20% | – | 100% | 100% | 100% | 100% | – | – | – | – | 70% | 70% | – | – | – | –
Cc1cc(C)c(C2=NOC3CCOCC23)cc1NS(=O)(=O)C(F)(F)F (stereo not shown) [Compound 120, N-[2,4-Dimethyl-5-(3a,6,7,7a-tetrahydro-4H-pyrano[3,4-d]isoxazol-3-yl)phenyl]-1,1,1-trifluoromethanesulfonamide] | 90% | 90% | – | 40% | 90% | 90% | 100% | – | – | – | – | – | – | – | – | – | – | – | –
Cc1cc(Cl)c(NS(=O)(=O)C(F)(F)F)cc1C(=O)N1CCC(F)(F)CC1 [Compound 229, N-[2-Chloro-5-[(4,4-difluoro-1-piperidinyl)carbonyl]-4-methylphenyl]-1,1,1-trifluoromethanesulfonamide] | – | – | – | – | 90% | – | 90% | – | – | 100% | 50% | 70% | – | – | – | 100% | – | – | –
CCc1cc(-c2cc(NS(=O)(=O)C(F)(F)F)c(C)cc2C)c(=O)n(C)n1 [Compound 34, N-[5-(6-Ethyl-2,3-dihydro-2-methyl-3-oxo-4-pyridazinyl)-2,4-dimethylphenyl]-1,1,1-trifluoromethanesulfonamide] | 0% | – | – | 0% | – | 0% | 0% | – | – | – | – | – | – | 0% | 0% | – | – | – | –
Cc1cc(C)c(N(COC(=O)C(C)(C)C)S(=O)(=O)C(F)(F)F)cc1C1=NOC2(CCCCC2)C1 [Compound 159, [[2,4-Dimethyl-5-(1-oxa-2-azaspiro[4.5]dec-2-en-3-yl)phenyl][(trifluoromethyl)sulfonyl]amino]methyl 2,2-dimethylpropanoate] | – | 80% | – | – | 30% | 40% | 60% | – | – | – | 0% | – | 30% | – | – | – | – | – | –
Cc1cc(C)c(C2=NOC3(CCCC3)C2)cc1NS(=O)(=O)C(F)(F)F [Compound 207, N-[2,4-Dimethyl-5-(1-oxa-2-azaspiro[4.4]non-2-en-3-yl)phenyl]-1,1,1-trifluoromethanesulfonamide] | – | 80% | – | – | 90% | – | 90% | – | 100% | 100% | 50% | 90% | 60% | – | – | – | – | – | –
Cc1cc(C)c(C(=O)N2CCC(F)(F)CC2)cc1NS(=O)(=O)C(F)(F)F [Compound 241, N-[5-[(4,4-Difluoro-1-piperidinyl)carbonyl]-2,4-dimethylphenyl]-1,1,1-trifluoromethanesulfonamide] | – | – | – | – | – | – | – | – | – | 100% | 0% | 100% | 60% | – | – | 100% | 90% | 30% | 100%
Cc1cc(C)c(N(COC(=O)C(C)(C)C)S(=O)(=O)C(F)(F)F)cc1C1=NOC2(CCCC2)C1 [Compound 140, [[2,4-Dimethyl-5-(1-oxa-2-azaspiro[4.4]non-2-en-3-yl)phenyl][(trifluoromethyl)sulfonyl]amino]methyl 2,2-dimethylpropanoate] | 70% | 90% | – | 30% | 90% | 40% | 100% | 0% | 50% | – | – | – | – | – | – | – | – | – | –
Cc1cc(Cl)c(NS(=O)(=O)C(F)(F)F)cc1C(=O)N1CCOCC1 [Compound 16, N-[2-Chloro-4-methyl-5-(4-morpholinylcarbonyl)phenyl]-1,1,1-trifluoromethanesulfonamide] | 60% | – | – | 40% | – | 90% | 100% | 100% | 100% | – | – | – | – | 90% | 90% | – | – | – | –
